Experimental data from ChEMBL document CHEMBL1155683, “Dolastatin 3 and two novel cyclic peptides from a palauan collection of Lyngbya majuscula” (J Nat Prod, 2000).
The source made the active and inactive calls. The calls are words filed in the database; no cut-off is given here.

Key:
[1] = target: Human immunodeficiency virus type 1 integrase (Human immunodeficiency virus 1) (UniProt Q7ZJM1); assay: Inhibition of HIV1 integrase strand transfer activity at […]
[2] = target: Human immunodeficiency virus type 1 integrase (Human immunodeficiency virus 1) (UniProt Q7ZJM1); assay: Inhibition of HIV1 integrase long terminal repeat cleavage activity at […]
[3] = target: T1, Human immunodeficiency virus type 1 integrase (Human immunodeficiency virus 1, UniProt Q7ZJM1); assay: Inhibition of HIV1 integrase strand transfer activity
T1 sequence (Q7ZJM1 whole entry): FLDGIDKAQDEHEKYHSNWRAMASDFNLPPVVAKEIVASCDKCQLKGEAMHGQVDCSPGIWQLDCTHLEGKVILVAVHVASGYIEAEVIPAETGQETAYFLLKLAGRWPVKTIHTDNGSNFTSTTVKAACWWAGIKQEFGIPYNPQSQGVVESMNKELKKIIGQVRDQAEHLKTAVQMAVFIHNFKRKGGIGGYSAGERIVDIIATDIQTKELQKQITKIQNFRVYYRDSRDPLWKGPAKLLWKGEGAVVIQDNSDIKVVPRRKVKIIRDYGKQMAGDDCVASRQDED

[4] = target: T1, Human immunodeficiency virus type 1 integrase; assay: Inhibition of HIV1 integrase long terminal repeat cleavage activity

Human immunodeficiency virus type 1 integrase (Human immunodeficiency virus 1), sequence (Q7ZJM1 as listed by the source): as the sequence (Q7ZJM1 whole entry) above

Activity [1]	Activity [2]	Compound	IC50 [3] [mM]	IC50 [4] [mM]
inactive	inactive	CCC(C)[C@@H]1NC(=O)c2csc(n2)CNC(=O)c2csc(n2)[C@H](CCC(N)=O)NC(=O)[C@H](CC(C)C)NC(=O)[C@@H]2CCCN2C1=O (some centres undefined)	–	–
–	–	CC(C)C[C@@H]1NC(=O)[C@@H]2CCCN2C(=O)[C@H](C(C)C)NC(=O)c2csc(n2)CNC(=O)c2csc(n2)[C@H](CCC(N)=O)NC1=O [DOLASTATIN 3]	4.1	5
